Assay results reported in patent US6737383B1, “Herbicidal oxadiazolidines” (priority 1999, dated 2004).

Key:
[1] = test system: corn; assay: Test B pre/postemergence corn; assay type: in vivo, Zea mays
In short: (§1)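 Test chemicals in a non-phytotoxic solvent mixture with surfactant were sprayed preemergence onto planted seeds and postemergence onto plants 2 to 18 cm tall (1- to 4-leaf stage). After twelve to sixteen days in a greenhouse, injury was visually rated against untreated controls from 0 (no effect) to 10 (complete control).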

[2] = test system: rice; assay: Test B flood test rice; assay type: in vivo, Oryza sativa
In short: (§2)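 Plants were grown to the 2-leaf stage before treatment with test chemical, then held in a greenhouse for twelve to sixteen days. Injury was visually rated against untreated controls on a 0–10 scale, where 0 is no effect and 10 is complete control.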

[3] = test system: pigweed; assay: Test B pre/postemergence pigweed; assay type: in vivo, Amaranthus retroflexus; settings: for Plant response rating, Redroot pigweed: scale of 0 to 10 where 0 is no effect and 10 is complete control
In short: as §1

[4] = test system: soybean; assay: Test B pre/postemergence soybean; assay type: in vivo, Glycine max; settings: for Plant response rating, Soybean: scale of 0 to 10 where 0 is no effect and 10 is complete control
In short: as §1

[5] = test system: sugar beet; assay: Test B pre/postemergence sugar beet; assay type: in vivo, Beta vulgaris; settings: for Plant response rating, Sugarbeets: scale of 0 to 10 where 0 is no effect and 10 is complete control
In short: as §1

[6] = test system: giant foxtail; assay: Test B pre/postemergence giant foxtail; assay type: in vivo, Setaria faberii
In short: as §1

[7] = test system: purple nutsedge; assay: Test B pre/postemergence purple nutsedge; assay type: in vivo, Cyperus rotundus; settings: for Plant response rating, Nutsedge: scale of 0 to 10 where 0 is no effect and 10 is complete control
In short: as §1

[8] = test system: blackgrass; assay: Test B pre/postemergence blackgrass; assay type: in vivo, Alopecurus myosuroides
In short: as §1

[9] = test system: smallflower flatsedge; assay: Test B flood test smallflower flatsedge; assay type: in vivo, Cyperus difformis
In short: as §2

[10] = test system: rape; assay: Test B pre/postemergence rape; assay type: in vivo, Brassica napus; settings: for Plant response rating, Rape: scale of 0 to 10 where 0 is no effect and 10 is complete control
In short: as §1

[11] = test system: bedstraw; assay: Test B pre/postemergence bedstraw; assay type: in vivo, Galium aparine; settings: Postemergence
In short: as §1

[12] = test system: duck salad; assay: Test B flood test duck salad; assay type: in vivo, Heteranthera limosa
In short: as §2

[13] = test system: velvetleaf; assay: Test B pre/postemergence velvetleaf; assay type: in vivo, Abutilon theophrasti; settings: for Plant response rating, Velvetleaf: scale of 0 to 10 where 0 is no effect and 10 is complete control
In short: as §1

[14] = test system: bamyardgrass; assay: Test B flood test barnyardgrass; assay type: in vivo, Echinochloa crus-galli
In short: as §2

[15] = test system: surinam grass; assay: Test B pre/postemergence surinam grass; assay type: in vivo, Brachiaria decumbens
In short: as §1

[16] = test system: morningglory; assay: Test B pre/postemergence morningglory; assay type: in vivo, Ipomoea hederacea; settings: for Plant response rating, Morningglory: scale of 0 to 10 where 0 is no effect and 10 is complete control
In short: as §1

[17] = Postemergence, Rate 250 g/ha, scale 0 to 10
[18] = Postemergence, Rate 500 g/ha, scale of 0 to 10 where 0 is no effect and 10 is complete control
[19] = Preemergence, Rate 62 g/ha, scale of 0 to 10 where 0 is no effect and 10 is complete control
[20] = Preemergence, Rate 125 g/ha, scale of 0 to 10 where 0 is no effect and 10 is complete control
[21] = Preemergence, Rate 250 g/ha, scale 0 to 10, 0 is no effect, 10 is complete control
[22] = Preemergence, Rate 500 g/ha, scale 0 to 10, 0 is no effect, 10 is complete control
[23] = Rate 62 g/ha, Postemergence, scale 0 to 10, 0 no effect, 10 complete control
[24] = Rate 125 g/ha, Postemergence, scale 0 to 10, 0 is no effect, 10 is complete control
[25] = Rate 62 g/ha, flood test species, Pre-emergence, visual evaluation after twelve to sixteen days
[26] = Rate 125 g/ha, under heading Pre-emergence, flood test species, visual evaluation after twelve to sixteen days
[27] = Rate 250 g/ha, Pre-emergence (flood test species), scale 0 to 10, 0 is no effect, 10 is complete control
[28] = Rate 500 g/ha, Pre-emergence, flood test species, scale 0 to 10 (0 no effect, 10 complete control)

CC(C)N(C(=O)n1oc(=O)n(C(C)C#N)c1=O)c1ccc(Cl)cc1 (centres unmarked) [Compound 451]
Corn plant response rating [1, 17]: 0 | Corn plant response rating [1, 18]: 0 | Plant response rating, Corn [1, 19]: 0 | Plant response rating, Corn [1, 20]: 0 | Corn plant response rating [1, 21]: 0 | Corn plant response rating [1, 22]: 0 | Corn plant response rating [1, 23]: 0 | Corn plant response rating [1, 24]: 0 | Plant response rating, Rice (0 to 10 scale, 0 is no effect, 10 is complete control) [2, 25]: 0 | Rice plant response rating (0 to 10 scale, 0 is no effect, 10 is complete control) [2, 26]: 0 | Rice plant response rating [2, 27]: 0 | Rice plant response rating [2, 28]: 0 | Redroot pigweed plant response rating [3, 17]: 0 | Plant response rating, Redroot pigweed ([3]; Preemergence, Rate 62 g/ha): 0 | Plant response rating, Redroot pigweed ([3]; Preemergence, Rate 125 g/ha): 0 | Redroot pigweed plant response rating [3, 21]: 0 | Redroot pigweed plant response rating [3, 22]: 0 | Redroot pigweed plant response rating [3, 23]: 0 | Redroot pigweed plant response rating [3, 24]: 0 | Soybean plant response rating [4, 17]: 1 | Plant response rating, Soybean ([4]; Preemergence, Rate 62 g/ha): 0 | Plant response rating, Soybean ([4]; Preemergence, Rate 125 g/ha): 0 | Soybean plant response rating [4, 21]: 0 | Soybean plant response rating [4, 22]: 0 | Soybean plant response rating [4, 23]: 0 | Soybean plant response rating [4, 24]: 1 | Sugarbeets plant response rating [5, 17]: 0 | Plant response rating, Sugarbeets ([5]; Preemergence, Rate 62 g/ha): 0 | Plant response rating, Sugarbeets ([5]; Preemergence, Rate 125 g/ha): 0 | Sugarbeets plant response rating [5, 21]: 0 | Sugarbeets plant response rating [5, 22]: 0 | Sugarbeets plant response rating [5, 23]: 0 | Sugarbeets plant response rating [5, 24]: 0 | Giant foxtail plant response rating [6, 17]: 3 | Giant foxtail plant response rating [6, 18]: 7 | Plant response rating, Giant foxtail [6, 19]: 0 | Plant response rating, Giant foxtail [6, 20]: 0 | Giant foxtail plant response rating [6, 21]: 4 | Giant foxtail plant response rating [6, 22]: 7 | Giant foxtail plant response rating [6, 23]: 0 | Giant foxtail plant response rating [6, 24]: 0 | Nutsedge plant response rating [7, 17]: 0 | Plant response rating, Nutsedge ([7]; Preemergence, Rate 62 g/ha): 0 | Plant response rating, Nutsedge ([7]; Preemergence, Rate 125 g/ha): 0 | Nutsedge plant response rating [7, 22]: 0 | Nutsedge plant response rating [7, 23]: 0 | Nutsedge plant response rating [7, 24]: 0 | Blackgrass plant response rating [8, 17]: 2 | Blackgrass plant response rating [8, 18]: 6 | Plant response rating, Blackgrass [8, 19]: 0 | Plant response rating, Blackgrass [8, 20]: 0 | Blackgrass plant response rating [8, 21]: 0 | Blackgrass plant response rating [8, 22]: 0 | Blackgrass plant response rating [8, 23]: 0 | Blackgrass plant response rating [8, 24]: 0 | Plant response rating, S. Flatsedge (0 to 10 scale, 0 is no effect, 10 is complete control) [9, 25]: 0 | S. Flatsedge plant response rating (0 to 10 scale, 0 is no effect, 10 is complete control) [9, 26]: 0 | S. Flatsedge plant response rating [9, 27]: 0 | S. Flatsedge plant response rating [9, 28]: 0 | Rape plant response rating [10, 17]: 0 | Plant response rating, Rape ([10]; Preemergence, Rate 62 g/ha): 0 | Plant response rating, Rape ([10]; Preemergence, Rate 125 g/ha): 0 | Rape plant response rating [10, 21]: 0 | Rape plant response rating [10, 22]: 0 | Rape plant response rating [10, 23]: 0 | Rape plant response rating [10, 24]: 0 | Bedstraw plant response rating ([11]; Rate 62 g/ha, scale 0 to 10, 0 no effect, 10 complete control): 0 | Bedstraw plant response rating ([11]; Rate 125 g/ha, scale 0 to 10, 0 is no effect, 10 is complete control): 0 | Plant response rating, Ducksalad (0 to 10 scale, 0 is no effect, 10 is complete control) [12, 25]: 0 | Ducksalad plant response rating (0 to 10 scale, 0 is no effect, 10 is complete control) [12, 26]: 0 | Ducksalad plant response rating [12, 27]: 0 | Ducksalad plant response rating [12, 28]: 0 | Velvetleaf plant response rating [13, 17]: 0 | Plant response rating, Velvetleaf ([13]; Preemergence, Rate 62 g/ha): 0 | Plant response rating, Velvetleaf ([13]; Preemergence, Rate 125 g/ha): 0 | Velvetleaf plant response rating [13, 21]: 0 | Velvetleaf plant response rating [13, 22]: 0 | Velvetleaf plant response rating [13, 23]: 0 | Velvetleaf plant response rating [13, 24]: 0 | Plant response rating, Barnyardgrass (0 to 10 scale, 0 is no effect, 10 is complete control) [14, 25]: 0 | Barnyardgrass plant response rating (0 to 10 scale, 0 is no effect, 10 is complete control) [14, 26]: 0 | Barnyardgrass plant response rating [14, 27]: 0 | Barnyardgrass plant response rating [14, 28]: 0 | B. signalgrass plant response rating ([15]; Postemergence, Rate 250 g/ha, scale 0 to 10, 0 no effect, 10 complete control): 0 | B. signalgrass plant response rating [15, 18]: 2 | Plant response rating, B. signalgrass [15, 19]: 0 | Plant response rating, B. signalgrass [15, 20]: 0 | B. signalgrass plant response rating [15, 21]: 0 | B. signalgrass plant response rating [15, 22]: 0 | B. signalgrass plant response rating [15, 23]: 0 | B. signalgrass plant response rating [15, 24]: 0 | Morningglory plant response rating [16, 17]: 1 | Plant response rating, Morningglory ([16]; Preemergence, Rate 62 g/ha): 0 | Plant response rating, Morningglory ([16]; Preemergence, Rate 125 g/ha): 0 | Morningglory plant response rating [16, 21]: 0 | Morningglory plant response rating [16, 22]: 0 | Morningglory plant response rating [16, 23]: 1 | Morningglory plant response rating [16, 24]: 1
